The record followed here is patent US7741344B2, “Process for preparing purified S-BEL and R-BEL and compositions thereof” (Washington University in St. Louis, priority 2002, dated 2010).

One assay concerns A-10 smooth muscle cells. In words: AVP-induced [3H]-arachidonic acid liberation from A-10 cells. The assay is classed as cell-based, rat. Conditions: for restoration of arachidonic acid release in (S)-BEL treated A-10 cells: 5 μM (S)-BEL pretreatment, then 1 μM AVP with PMA (1 μM) or DOG (10 μM), FIG. 7. The method, then: Quantification of [^3H]-Arachidonic Acid Liberation from A-10 Phospholipids—Rat aortic smooth muscle A-10 cells, cultured in 60 mm dishes (2.5×10^5 cells/dish), were radiolabeled with 0.5 μCi [^3H]-arachidonic acid per dish as previously described (29). Cells were washed once with DMEM containing 0.25% fatty acid free bovine serum albumin followed by two washes with DMEM alone. Cells were then incubated with the indicated concentrations of (R)-, (S)-, rac-BEL, or ethanol vehicle (0.1% final concentration) in DMEM for 20 min. This media was removed and the cells were then incubated with DMEM containing 10% heat-inactivated fetal bovine serum in the absence or presence of 1 μM AVP. In some tests, PMA (1 μM) or DOG (10 μM) was added to the medium containing AVP. After 5 mm, 1 ml of this medium was removed, lipids were extracted into 2 ml of chloroform/methanol/acetic acid (25:24:1 v/v) (38), and the remaining cells were scraped into 1 ml of deionized water prior to lipid extraction as described above. The chloroform layer was evaporated under nitrogen and the extracted lipids were separated by thin layer chromatography (petroleum ether/ethyl ether/glacial acetic acid 70:30:1). Regions containing fatty acids and phospholipids were scraped into vials and radioactivity was quantified by liquid scintillation spectrometry.
A-10 cells (2.5×10^5 cells/dish) were radiolabeled with [^3H]-arachidonic acid (0.5 μCi/dish) for 20 hrs. After washing to remove unincorporated [^3H]-arachidonic acid, cells were then incubated with either 1 μM or 5 μM (R)-BEL, (S)-BEL, rac-BEL, or ethanol vehicle (0.1%) in DMEM for 20 mm. This media was removed and the cells were then incubated with 3 ml of DMEM containing 10% heat-inactivated fetal bovine serum with or without 1 μM AVP. After 5 min, 1 ml of this medium was removed and lipids were extracted into 2 ml of chloroform/methanol/acetic acid (25:24:1). The remaining cells were scraped into 1 ml of deionized water and total lipids were extracted as described above. The chloroform layer was evaporated under nitrogen and the extracted lipids were separated by TLC. Regions containing fatty acids and phospholipids were scraped into vials and radioactivity was quantified by liquid scintillation spectrometry. Results are representative of four separate tests.
A-10 cells were radiolabeled with [^3H]-arachidonic acid, washed, and pre-incubated with 5 μM (S)-BEL or ethanol vehicle alone for 15 min as described in FIG. 5. DMEM media containing 10% heat-inactivated fetal bovine serum with or without 1 μM AVP was then added to the cells. After 5 min at 37° C., [^3H]-arachidonic acid released into the media and remaining within the cells (free and incorporated into phospholipids) was extracted into chloroform, separated by TLC, and quantified by liquid scintillation spectrometry as described in “Experimental Procedures”. Results are representative of three separate tests.

In a further assay the test system is PKCδ. As to the kind of experiment: AVP-induced PKC translocation in A-10 cells (Western), PKCδ. The assay is classed as cell-based, rat. Conditions: 5 μM pretreatment 15 min, 1 μM AVP; FIG. 8. The method, then: (§1) Determination of PKC Translocation—Confluent A-10 cells in 10 cm dishes were washed twice with DMEM without serum, followed by incubation with either 5 μM (S)-BEL or ethanol vehicle in DMEM for 15 min at 37° C. This media was then removed and DMEM with or without 1 μM AVP was incubated with the cells for 5 min. After washing with ice-cold PBS, the cells were collected by scraping into 20 mM Tris-HCl, pH 7.4 containing 0.33 M sucrose, 5 mM EDTA, 0.5 mM 4(2-aminoethyl)benzenesulfonylfluoride, and 5 μg/ml leupeptin and were lysed by three cycles of flash freezing with liquid nitrogen and thawing. Each sample was then further homogenized utilizing a teflon homogenizer before isolating the low speed pellet (1,000×g), membrane (100,000×g pellet), and cytosol (100,000×g supernatant) fractions. The protein concentrations of the fractions were determined utilizing the bicinchoninic acid (BCA) assay (Pierce) with BSA as a standard. Samples were electrophoresed and subjected to ECL Western analysis utilizing rabbit polyclonal antibodies against PKCα and PKCε as described above for MAPK phosphorylation. For blots incubated with mouse monoclonal antibodies against PKCδ and PKCι., an anti-mouse IgG (Fab specific)-peroxidase conjugate was utilized in place of the protein A-peroxidase conjugate. […]

In another assay the test system is PKCε. As to the kind of experiment: AVP-induced PKC translocation in A-10 cells (Western), PKCε. The assay is classed as cell-based, rat. Conditions: 5 μM pretreatment 15 min, 1 μM AVP; FIG. 8. The method, then: as §1
The next assay has as its target T1, α-chymotrypsin (Bos taurus, UniProt P00766).
T1 construct: purchased Sigma
As to the kind of experiment: Inhibition of α-chymotrypsin by BEL. The format is biochemical. The following applies: 2 μM chymotrypsin, up to 5-fold molar excess of inhibitor, 5 min 22° C., then 1000-fold dilution with 100 mM hydrazine; FIG. 3. The method, then: Inhibition of α-Chymotrypsin by BEL—The kinetics of α-chymotrrpsin inactivation by (R)-, (S)-, and rac-BEL were performed similar to methods previously described (36). The concentration of α-chymotrypsin (MW=25,000) was determined using an A^1%=20 (1 cm pathlength) at 280 nm (37). Briefly, one milliliter of α-chymotrypsin (2 μM) was incubated with up to a 5-fold molar excess of (R)-,(S)-, or rac-BEL dissolved in acetonitrile or vehicle alone for 5 mm at 22° C. in 0.1 M sodium phosphate buffer, pH 7.2. […] Following incubation at 22° C. for 1 hr, chymotrypsin activity in each diluted sample was measured utilizing a SPECTRAmax GeminiXS microplate spectrofluorometer with N-succinyl-Ala-Ala-Pro-Phe-7-amidomethylcoumarin (50 μM) as substrate for 1 mm at 25° C. Excitation and emission wavelengths were 380 nm and 460 nm, respectively.
Chymotrypsin (2 μM) in 0.1 M sodium phosphate buffer, pH 7.2 was incubated with the indicated concentrations of racemic, (R)-, or (S)-BEL for 5 mm. This solution was then diluted 1000-fold in 0.1 M sodium phosphate buffer, pH 7.2 containing 100 mM hydrazine and incubated for 1 hr at 22° C. Chymotrypsin proteolytic activity was measured spectrofluorometrically using N-succinyl-Ala-Ala-Pro-Phe-7-amido-4-methylcoumarin (50 μM) as substrate.

Assay [1] deals with purified recombinant iPLA2β. In words: Assay of iPLA2β inhibition by BEL (radiolabeled phospholipid substrate). The format is biochemical.
Method: Recombinant iPLA2 Enzymes—Recombinant iPLA2β was expressed and purified from Sf9 cells as previously described (35).
Assay of iPLA2β and iPLA2γ Inhibition by BEL—Purified recombinant iPLA2β or Sf9 cell membranes containing recombinant iPLA2γ were incubated with (R) BEL, (S) BEL, racemic BEL, or ethanol vehicle for 3 mm at 22° C. in the presence of 100 mM Tris-HCl (pH 7.0) and 4 mM EGTA (for iPLA2β) or 100 mM Tris-acetate (pH 8.0) and 4 mM EGTA (for iPLA2γ). The concentration of BEL used for each test ranged from 0 to 16 μM. L-α-1-palmitoyl-2-[1^14C]-arachidonyl-phosphatidylcholine (5 μM final concentration) or L-α-1-palmitoyl-2-[1-^14C]-oleoyl-phosphatidylcholine (5 μM final concentration) in ethanol was then added to each sample and incubated at 37° C. for 2 min. Reactions were terminated by extraction of radiolabeled products into butanol, and reactants and products were separated by thin layer chromatography using Whatman LK6D 60 Å Silica Gel plates with petroleum ether/ethyl ether/acetic acid (70:30:1) as the mobile phase. Regions corresponding to the migration of a fatty acid standard visualized by iodine staining were scraped into vials and radioactivity was quantified by scintillation spectrometry.
Panel A—Purified recombinant iPLA2β (1 μg/ml) in 100 mM Tris-HCl, pH 7.3 containing 1 mM EGTA was preincubated at 22° C. for 3 mm in the presence of the indicated concentrations of (R)-, (S)-, or rac-BEL or ethanol vehicle alone (1% final concentration). Radiolabeled substrate (L-α-1-palmitoyl-2-[1-^14C]-arachidonyl-phosphatidylcholine, 5 μM final concentration) was then added to each reaction and incubated at 37° C. for 2 min. Reactions were terminated by extraction of remaining substrate and products into butanol, separation by TLC, and quantification of released radiolabeled fatty acid by scintillation spectrometry as described in Experimental Procedures.
Assay [2] relates to MAPK (ERK2) phosphorylation. As to the kind of experiment: AVP-induced MAPK phosphorylation in A-10 cells (Western). The format is cell-based, rat. The following applies: 5 μM, 15 min, 1 μM AVP; FIG. 9.

In the case of `CCCCCCCC(=O)OC[C@H](CO)OC(=O)CCCCCCC` [DOG, 1,2-Dioctanoyl-sn-glycerol], the “restoration of arachidonic acid release in (S)-BEL treated A-10 cells” value in the assay on A-10 smooth muscle cells is “Neither PMA or DOG could restore”.

`O=C1O/C(=C/Br)CC[C@H]1c1cccc2ccccc12` [(S)-BEL, (S)(E)-6-(bromomethylene)-3-(1-naphthalenyl)-2H-tetrahydropyran-2-one]: in the assay with PKCδ, the “AVP-induced translocation of PKCδ to the membrane fraction” value is “does not effect”. For the same compound, in the assay with PKCε, the “AVP-induced translocation of PKCε to the membrane fraction” value was “does not effect”. For the same compound, the inhibition of chymotrypsin result against α-chymotrypsin is “considerably less potent”. In the assay with A-10 smooth muscle cells (1 μM AVP, read-out: IC50, AVP-induced liberation of AA from A-10 cells), the IC50 was around 1000 nM. In addition, the “inhibition of AVP-induced AA release” value in the assay on A-10 smooth muscle cells (1 μM inhibitor, 20 min pretreatment, 1 μM AVP, FIG. 5) worked out at 50%. For the same compound, in the assay with A-10 smooth muscle cells (5 μM inhibitor, 1 μM AVP, FIG. 5), the “AVP-induced AA release (in words)” value is listed as “completely attenuated”. Moreover, the “selectivity for inhibition of iPLA2β” value in assay [1] is given as 10 fold. For the same compound, the “inhibition of iPLA2β, fold more potent than (R)-BEL” value in assay [1] (3 min preincubation, FIG. 4A) amounted to 10 fold. Further, in assay [1] (in words), the “selectivity for iPLA2β in comparison to iPLA2γ” value was “approximately an order of magnitude more selective”. In assay [2], the “AVP-induced phosphorylation of ERK2” value is reported as “not effected”.

Turning to `CCCCCCCCCCCCCC(=O)O[C@@H]1[C@@H](C)[C@@]2(O)[C@@H](C=C(CO)C[C@]3(O)C(=O)C(C)=C[C@@H]23)[C@@H]2C(C)(C)[C@]12OC(C)=O` [PMA, Phorbol-12-myristate-13-acetate], the “restoration of arachidonic acid release in (S)-BEL treated A-10 cells” value in the assay on A-10 smooth muscle cells was “Neither PMA or DOG could restore”.
